Experimental data from patent publication US11484513B2, “Salbutamol-containing ophthalmic medicament” (priority 2016, dated 2022).

Key:
Myopia = assay: Clinical observation in myopia patients; type: in vivo, human; settings: 12 myopia patients, eye drops
Experimental: (§1) The invention will be illustrated further by the description of clinical examples, which of course are not limiting in nature. The medicament was administrated orally, topically in the form of eye drops or by intraocular injection especially intravitreal injection, unless indicated differently.
(§2) According to particular embodiments where topical administration using eye drops is carried out, the dosages, posologies, administration regimen of the administered active principles are as described in the particular embodiments disclosed in the detailed description, i.e., Salbutamol is administered topically in a concentration of 0.1% (w/v), and/or Ramiprilate is administered topically in a concentration of 2% (w/v), and/or eplerenone is administered topically in a concentration of 1% (w/v), and/or N Acetyl DL Leucine is administered topically in a concentration of 1% (w/v), the active principle(s) being administered once or twice or three times, and up to four times a day, during 1, 2 or 3 months, or more, unless specified differently.
This invention relates to the manufacture of an eye protective medicament, namely Salbutamol via general route or topical route (eye drops) for improving vision.
12 patients were evaluated and received salbutamol in the form of eye drops.
Results: in the addition to the improvement of their visual acuity, the refractive value was reduced. […]

Presbyopia = assay: Clinical observation in presbyopia patients; type: in vivo, human; settings: 08 patients, eye drops
Experimental: as §1, §2
08 patients received Salbutamol in the form of eye drops and experimented an improvement of their near vision and a decrease in presbyopia. […] Salbutamol has proven to be an effective treatment of presbyopia.

Astigmatism = assay: Clinical observation in astigmatism subjects; type: in vivo, human
Text: The invention will be illustrated further by the description of clinical examples, which of course are not limiting in nature. The medicament was administrated orally, topically in the form of eye drops or by intraocular injection especially intravitreal injection, unless indicated differently. This invention relates to the manufacture of an eye protective medicament, namely Salbutamol via general route or topical route (eye drops) for improving vision. More particularly, but not exclusively, it relates to eye drops comprising Salbutamol, which are intended for improving (i.e., in the present case decreasing the effects of presbyopia, myopia, hypermetropia and astigmatism) and for stabilizing them or even reversing their evolutive course thereof. The astigmatism subjects noticed an improvement of their refraction and visual acuity.

Keratoconus = assay: Clinical observation in keratoconus patients; type: in vivo, human; settings: 02 keratoconus patients
Text: The invention will be illustrated further by the description of clinical examples, which of course are not limiting in nature. The medicament was administrated orally, topically in the form of eye drops or by intraocular injection especially intravitreal injection, unless indicated differently. 02 patients received Salbutamol, they noticed an improvement of visual acuity and a reduced irregular astigmatism.

Diabetic retinopathy = assay: Clinical observation in diabetic retinopathy patients (visual acuity, OCT); type: in vivo, human
Experimental: as §1, §2
Currently, one examination technique is very useful in evaluating diabetic; that's optical coherence tomography (O.C.T).
OCT is very sensitive in evaluating diabetic macular oedema, central macular thickness correlates with visual acuity.
The response of macular oedema to the administration of one drug such as Salbutamol or a medicament associating Salbutamol, angiotensin converting enzyme inhibitor, antagonist of aldosterone receptor and N Acetyl DL Leucine can be documented accurately by O.C.T imaging.
Diabetic patients were treated with these medicaments given topically,
The following study was undertaken on several patients having non-proliferative diabetic; retinopathy or proliferative diabetic retinopathy.
20 patients were treated with either Salbutamol or salbutamol associated with one or more of these: ACEI (angiotensin converting enzyme inhibitor), aldosterone receptor antagonist, N Acetyl DL Leucine, magnesium and serrapeptase (eye drops; tablets; intra ocular injection especially intra vitreal injection). […]

[1] = system: Age related macular degeneration; assay: Clinical observation in age related macular degeneration patients (visual acuity, OCT, fluoro-angiography); type: in vivo, human
Experimental: as §1, §2
The structural information provided by O.C.T is becoming a valuable diagnostic adjunct to fluorescein angiography. OCT is a valuable tool for probing the effect of these treatments.
15 patients were treated with salbutamol or salbutamol associated with one or more of these: aldosterone receptor antagonist, ACEI (angiotensin converting enzyme inhibitor), N Acetyl DL Leucine, magnesium and serrapeptase (Eye drops; tablets; intra ocular injection).
Patient three presented with a history of decreased vision in the right eye. […] Prior to receiving Salbutamol treatment an OCT scan was taken, which is shown in (FIG. 06).
Then we prescribe topically Salbutamol eye drops 0.1% (w/v), Ramiprilat eye drops 2% (W/v), Eplerenone eye drops 1% (w/v). N Acetyl DL Leucine eye drops 1% (w/v) association three times a day.
Patient two presented with a six months history of decreased vision in the right eye.
They were treated with Salbutamol eye drops 0.1% (w/v). Three months later visual acuity improved.

Uveitis = assay: Clinical observation in uveitis cases (visual acuity, OCT); type: in vivo, human; settings: 10 cases of uveitis pooled (salbutamol alone or associated)
Experimental: as §1, §2
In 10 cases of uveitis; salbutamol alone or associated with one or more of these: non-steroidal anti inflammatory drugs, angiotensin converting enzyme inhibitors, aldosterone receptors antagonist, β1 blocker, anhydrase carbonic inhibitor, magnesium, corticosteroids and serrapeptase reduced inflammatory disorders. […]

Glaucoma = assay: Clinical observation in glaucoma patients; type: in vivo, human; settings: patients with known glaucoma, pooled (Salbutamol alone or associated)
Experimental: as §1
Patients with known glaucoma experienced a decrease in their ocular tension, and an improvement of their visual acuity and visual field once they are treated with Salbutamol or salbutamol associated with one or more of these: N Acetyl DL Leucine, glucose, magnesium, aldosterone receptor antagonist (eplerenone), angiotensin converting enzyme inhibitor (Ramiprilat), β1 blocker and anhydrase carbonic inhibitor.

Pigmentosa retinitis = assay: Clinical observation in pigmentosa retinitis patients; type: in vivo, human
Text: as §1

Stargardt's disease = assay: Clinical observation in Stargardt's disease patients; type: in vivo, human; settings: 8 patients
Text: as §1
8 patients treated with Salbutamol noticed an improvement of their visual acuity.
If we associate to Salbutamol one or more of these: N Acetyl DL Leucine, nitric monoxide donor (vitamin C, vitamin B9), Ramiprilat, and aldosterone receptor antagonist; improvement is noted.

Cataract = assay: Clinical observation in cataract; type: in vivo, human; settings: under salbutamol
Text: as §1

Corneal oedema = assay: Clinical observation in corneal oedema patients; type: in vivo, human; settings: 10 patients
Text: as §1

[2] = system: Age related physiological vision decline; assay: Clinical observation in age related physiological vision decline; type: in vivo, human; settings: many cases, absence of any ocular pathology
Text: as §1

Dry eye = assay: Clinical observation in dry eye patients; type: in vivo, human; settings: 7 patients, eye drops
Text: as §1

[3] = system: Allergic conjunctivitis and blepharitis; assay: Clinical observation in allergic conjunctivitis and blepharitis patients; type: in vivo, human; settings: 5 patients, eye drops
Text: as §1

Periretinal fibrosis = assay: Clinical observation in periretinal fibrosis; settings: human, in vivo
Text: as §1
13) Periretinal fibrosis: is reduced after Salbutamol treatment.

Vitreo macular traction = assay: Clinical observation in vitreo macular traction / proliferative diabetic retinopathy (vitreolysis); type: in vivo, human
Text: as §1
In many cases of proliferative diabetic retinopathy including fibrovascular proliferation, retinal detachment, vitreo macular traction, the intravitreal injection of Salbutamol led to induction of posterior vitreous detachment, easier peeling and removal of epiretinal fibrotic membrane and internal limiting membrane particularly in macular hole pathology.

Vitreous hemorrhage = assay: Clinical observation in vitreous hemorrhage; type: in vivo, human; settings: many cases
Text: as §1

[4] = 20 patients pooled (Salbutamol alone or associated), eye drops, tablets, intra ocular injection
[5] = 15 patients pooled (salbutamol alone or associated), eye drops, tablets, intra ocular injection
[6] = patient two, right eye, Salbutamol eye drops 0.1% (w/v), three months later

CC(C)(C)NCC(O)c1ccc(O)c(CO)c1 (stereo not shown) [Salbutamol]
refractive value (Myopia): reduced
visual acuity (Myopia): improvement
near vision (Presbyopia): improvement
need to wear a correction of the near vision (Presbyopia): Some of them did not need any longer
presbyopia (Presbyopia): decrease
refraction (Astigmatism): improvement
visual acuity (Astigmatism): improvement
irregular astigmatism (Keratoconus): reduced
visual acuity (Keratoconus): improvement
retinopathy (Diabetic retinopathy; [4]): improves
visual acuity (Diabetic retinopathy; [4]): improves
total macular volume (OCT) (Diabetic retinopathy; patient one, eye drops 0.1% (w/v), two months after treatment): decreased
O.C.T [1, 5]: improvement
visual acuity [1, 5]: improvement
macular thickening ([1]; eye drops given topically instead of intraocular anti VEGF injection): regression
successive OCT controls ([1]; patient three, first round of treatment (Salbutamol)): more improvement but no complete recovery
macular thickening ([1]; patient three, right eye, occult CNV, three months after Salbutamol treatment): incomplete regression
macular thickening (OCT) [1, 6]: incomplete regression
visual acuity [1, 6]: improved
inflammatory disorders (Uveitis): reduced
ocular tension (Glaucoma): decrease
visual acuity (Glaucoma): improvement
visual field (Glaucoma): improvement
visual acuity (Pigmentosa retinitis; 9 patients, all of them): improvement
visual field (Pigmentosa retinitis; 9 patients, all of them): improvement
visual function (Pigmentosa retinitis; pigmentosa retinitis): improvement
visual acuity (Stargardt's disease): improvement
improvement of cataract (Cataract): Some improvement
oedema (Corneal oedema): decreased
vision (Corneal oedema): improve
visual function [2]: improved
dry eye (Dry eye): improved
allergic conjunctivitis and blepharitis [3]: improved
periretinal fibrosis (Periretinal fibrosis): reduced
effect on the retina (Vitreo macular traction; during vitreolysis): without adversely affecting the retina
proteolytic activity (Vitreo macular traction; human, in vivo): seems to have a proteolytic activity
vitreolysis (Vitreo macular traction; human, in vivo): promotes a vitreolysis inducing both synchesis and synerisis
posterior vitreous detachment (Vitreo macular traction; intravitreal injection, many cases of proliferative diabetic retinopathy incl. vitreo macular traction): induction
peeling and removal of epiretinal fibrotic membrane and internal limiting membrane (Vitreo macular traction; intravitreal injection, many cases of proliferative diabetic retinopathy, particularly macular hole pathology): easier
vitreous hemorrhage (Vitreous hemorrhage): decreased
